One compound from patent publication US5527940A, “Methanediphosphonate derivative, its manufacturing process and its pharmaceutical applications” (Toray Industries, Inc., priority 1991, dated 1996) can be followed below.

In experiment [1] the test system is adjuvant arthritis model. The experiment is described as follows: Adjuvant Arthritis Test. The experiment is classed as in vivo, 7 week old female Lewis rats. Particulars: subcutaneous daily days 8-21. The method, then:
Multiple arthritis resembling human chronic articular rheumatism occurs when tubercule bacillus adjuvant is injected into rats. The antiinflammatory, antirheumatic and bone metabolism improving action of compounds of the present invention were investigated according to the following procedure using this adjuvant arthritis model.
0.1 mg of dried non-viable Mycobacterium butyricum cells were suspended in 0.1 ml of liquid paraffin followed by injection into the skin of the left hind limb of 7 week old female Lewis rats. The compounds obtained in the Examples were dissolved in sterilized distilled water and administered subcutaneously every day for two weeks from the 8th to 21st days after injection of adjuvant. During that time, the volumes of the right and left hind limbs were measured and the swelling rate was calculated according to the following formula: [formula]
Moreover, the swelling inhibition rates were also determined according to the following formula, and those values are shown in Table 1. [formula]
Soft X-ray radiographs were taken of the left and right hind limbs of the animals following sacrifice on day 22. The degree of bone destruction at five locations in the left and right hind limbs was evaluated based on the soft X-ray radiographs scoring those results among 5 ranks. Moreover, the bone destruction inhibition rate was calculated using the following formula, and those values are shown in Table 1. [formula]
Those results that were significant at a level of significance of P<0.001 with respect to a control group administered only sterilized distilled water according to the Student's t-test and Chukey's multiple comparison method were indicated with three asterisks (***), those results that were significant at a level of significance of P<0.01 were indicated with two asterisks (**), and those significant at a level of significance of P<0.05 were indicated with one asterisk (*).
The swelling inhibition rates for Example 7 and Example 33 are the values for day 14 and day 21.

Experiment [2] has as its system osteoclasts (mouse bone cells), resorption pit formation. The experiment is described as follows: Bone resorption pit formation by mouse bone cells (osteoclasts) on ivory, active type-vitamin D3 stimulation. The experiment is classed as cell-based, ICR mice. To be noted: 10 nM active type-vitamin D3, 4 days. The text has this:
The balance between bone formation and bone destruction is disturbed during osteoporosis, with bone destruction considered to be accelerated. Bone destruction is believed to occur due to an increase in the activation and number of osteoclasts. Experiments have been conducted wherein bone resorption was induced with active type-vitanium D3 stimulation using mouse bone cells dispersed on ivory for the experimental model. The bone resorption inhibitory action of compounds of the present invention was measured using this model.
After isolating the femur and tibia from 10-15 day old ICR mice, the bone specimens were prepared into thin sections in α-MEM medium containing 5% fetal bovine serum to prepare an bone cells suspension containing marrow cells and bone matrix. Large fragments of bone were removed with nylon mesh. Viable total cells were counted with trypan blue exclusion test while osteoclasts were stained with tartaric acid-resistantacid phosphatase stain to prepare a cell suspension containing osteoclasts in a proportion of roughly 0.05-0.1%. The ivory was cut into thin sections having a thickness of 150 μm using a low-speed rotary diamond cutter. The thin sections were then punched to a size that matched the size of the wells of a 96 well plate. These ivory fragments were placed in a 96 well plate followed by addition of the cell suspension prepared above so that each well contained 500 osteoclasts. 10 nM active type-vitamin D3 was added as stimulant simultaneous to addition of the drugs of the present invention at concentrations of 10 μM and 100 μM. After culturing the cells for 4 days at 37° C. in an environment of 10% CO2, the resorption pits that formed on the ivory slices were stained with hematoxylin and counted by observing microscopically. The resorption pit formation inhibition rate was then calculated using the formula indicated below. [formula]
The results were statistically processed using the Student's t-test, and those results that were significant at a level of significance of P<0.05 with respect to an active type-vatanium D3 stimulation control group were indicated with one asterisk (*), while those results that were significant at a level of significance of P<0.01 were indicated with two asterisks (**).

Consider `CSc1ccc(SC(P(=O)(O)O)P(=O)(O)O)cc1` [Example 2, (4-methylthiophenyl)thiomethanediphosphonic acid], for which the “Bone Destruction Inhibition Rate with respect to control group, Day 22” value in experiment [1] (Day 22, soft X-ray score of left and right hind limbs) came out at 62.3%. Moreover, in experiment [1] (left (adjuvant-injected) hind limb, Day 16), the “Swelling Inhibition Rate with respect to Control Group, Day 16, Left” value came out at 96.0%. Besides, the “Swelling Inhibition Rate with respect to Control Group, Day 21, Left” value in experiment [1] (left (adjuvant-injected) hind limb, Day 21) is reported as 122.5%. Moreover, in experiment [1] (right hind limb, Day 16), the “Swelling Inhibition Rate with respect to Control Group, Day 16, Right” value came out at 9.1%. Further, the “Swelling Inhibition Rate with respect to Control Group, Day 21, Right” value in experiment [1] (right hind limb, Day 21) was 30.6%. The figures for the “resorption pit formation Inhibition Rate with respect to Control Group” value in experiment [2] (10 μM compound) and in experiment [2] (100 μM compound) were 79.9 ± 3.12% and 92.6 ± 1.08%, respectively.
